This is an account of results in patent US20040138199A1, “Benzoxazines and derivatives thereof as therapeutic agents” (priority 2002, published 2004).

One may read the IC50 as the concentration that inhibits the measured activity by half.

This assay deals with T1, p101/p110γ protein (PI3Kγ) (Homo sapiens, UniProt P48736).
T1 construct: HA; made in house; host or cells: Spodoptera frugiperda (Sf9) cells, baculovirus coinfection
T1 sequence (P48736 whole entry, species assumed): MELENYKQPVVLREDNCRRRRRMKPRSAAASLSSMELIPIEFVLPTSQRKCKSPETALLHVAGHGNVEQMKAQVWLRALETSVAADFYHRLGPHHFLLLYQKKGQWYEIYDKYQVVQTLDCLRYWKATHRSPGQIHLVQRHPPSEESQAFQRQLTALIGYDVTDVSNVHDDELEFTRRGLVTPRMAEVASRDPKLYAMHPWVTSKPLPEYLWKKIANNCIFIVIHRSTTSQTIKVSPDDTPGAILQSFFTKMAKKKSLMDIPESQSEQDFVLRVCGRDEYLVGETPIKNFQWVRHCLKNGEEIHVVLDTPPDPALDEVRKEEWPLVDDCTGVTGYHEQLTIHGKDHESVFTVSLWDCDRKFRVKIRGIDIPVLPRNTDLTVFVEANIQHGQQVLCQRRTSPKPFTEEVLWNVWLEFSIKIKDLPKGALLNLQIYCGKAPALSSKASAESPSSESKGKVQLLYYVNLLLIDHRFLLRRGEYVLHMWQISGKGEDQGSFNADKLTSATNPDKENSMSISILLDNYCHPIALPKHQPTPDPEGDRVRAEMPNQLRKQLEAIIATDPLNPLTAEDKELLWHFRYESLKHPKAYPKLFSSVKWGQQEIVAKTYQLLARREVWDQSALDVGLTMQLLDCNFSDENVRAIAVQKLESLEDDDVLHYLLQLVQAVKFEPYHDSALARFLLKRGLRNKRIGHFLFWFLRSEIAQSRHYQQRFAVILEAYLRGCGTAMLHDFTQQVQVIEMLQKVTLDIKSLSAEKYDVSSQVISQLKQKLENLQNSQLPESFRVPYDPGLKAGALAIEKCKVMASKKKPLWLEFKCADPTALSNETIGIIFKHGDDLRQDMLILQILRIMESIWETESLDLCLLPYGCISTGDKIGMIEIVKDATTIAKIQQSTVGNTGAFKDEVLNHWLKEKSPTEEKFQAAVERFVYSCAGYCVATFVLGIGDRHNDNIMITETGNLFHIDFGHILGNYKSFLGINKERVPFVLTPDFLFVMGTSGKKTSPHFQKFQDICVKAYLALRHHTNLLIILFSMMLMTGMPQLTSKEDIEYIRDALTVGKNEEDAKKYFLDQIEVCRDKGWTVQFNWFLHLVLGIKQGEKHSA
T1 sequence (Q8WYR1 whole entry partner, species assumed): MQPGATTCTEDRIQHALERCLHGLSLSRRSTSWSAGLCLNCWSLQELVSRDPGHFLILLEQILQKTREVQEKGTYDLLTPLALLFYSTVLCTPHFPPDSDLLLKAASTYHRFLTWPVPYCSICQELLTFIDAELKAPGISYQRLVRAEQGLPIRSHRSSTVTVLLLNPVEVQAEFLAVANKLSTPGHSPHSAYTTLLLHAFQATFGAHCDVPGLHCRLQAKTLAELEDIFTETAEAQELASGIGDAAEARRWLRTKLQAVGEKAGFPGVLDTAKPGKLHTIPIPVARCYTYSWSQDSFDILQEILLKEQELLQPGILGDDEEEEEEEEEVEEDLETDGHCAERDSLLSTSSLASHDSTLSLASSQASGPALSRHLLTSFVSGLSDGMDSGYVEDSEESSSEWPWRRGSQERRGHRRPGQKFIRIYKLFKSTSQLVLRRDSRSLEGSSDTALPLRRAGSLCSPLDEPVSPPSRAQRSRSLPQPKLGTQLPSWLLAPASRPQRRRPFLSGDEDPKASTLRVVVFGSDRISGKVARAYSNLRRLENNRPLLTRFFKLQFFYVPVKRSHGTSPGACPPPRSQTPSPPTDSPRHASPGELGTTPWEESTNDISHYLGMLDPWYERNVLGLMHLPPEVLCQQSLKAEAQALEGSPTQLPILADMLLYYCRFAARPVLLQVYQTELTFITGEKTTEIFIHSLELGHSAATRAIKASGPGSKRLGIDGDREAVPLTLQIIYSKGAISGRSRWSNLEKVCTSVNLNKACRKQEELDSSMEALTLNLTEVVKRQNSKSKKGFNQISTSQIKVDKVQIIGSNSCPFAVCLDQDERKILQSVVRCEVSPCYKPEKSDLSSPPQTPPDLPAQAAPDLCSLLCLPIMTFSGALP
In words: PI3Kγ In Vitro Kinase Assay. In kind it is biochemical. As to conditions: purified recombinant p101/p110γ with G protein β1/γ2 subunits; 20 μM ATP, 25 μM PIP2; 20 minutes at room temperature; radioactive PIP3 readout. Summed up:
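Baculovirus/Sf9-expressed p101/p110γ (~2.7 nM) with G protein β1/γ2, 20 μM ATP plus [γ-32P]ATP, PIP2/PE micelles (25 μM PIP2, 300 μM PE, 10 mM MgCl2) in HEPES buffer. Reaction 20 min at room temperature, stopped with H3PO4; radiolabelled PIP3 counted on filters to derive IC50 (μM).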
As for `CC(C)(C)c1cc(CN2CCOc3ccc(C=C4SC(=S)NC4=O)cc32)cc(C(C)(C)C)c1` [Example 5, 5[4-(3,5-Di-tert-butyl-benzyl)-3,4-dihydro-2H-benzo[1,4]oxazine-6-ylmethylene]-2-thioxo-thiazolidin-4-one], the half-inhibitory concentration (IC50) was found to be 1870 nM. As for `CC(C(=O)N1CCOc2ccc(C=C3SC(=S)NC3=O)cc21)C(C)(C)C` (stereo not shown) [Example 90, 2-Thioxo-5-[4-(2,3,3-trimethyl-butyryl)-3,4-dihydro-2H-benzo[1,4]oxazin-6-ethylene]-2-thioxo-thiazolidin-4-one], the figure is 1030 nM.

Turning to `O=C1NC(=S)SC1=Cc1ccc2c(c1)N(C(=O)Nc1ccc(Cl)cc1C(F)(F)F)CCCO2` [Example 120, 2-(4-Oxo-2-thioxo-thiazolidin-5-ylidenemethyl)-7,8-dihydro-6H-5-oxa-9-aza-benzocycloheptene-9-carboxylic acid (4-chloro-2-trifluoromethyl-phenyl)-amide], the 50% inhibitory concentration (IC50) came to 1870 nM.

Regarding `O=C1NC(=S)SC1=Cc1ccc2c(c1)N(C(=O)c1ccco1)CCCO2` [Example 123, 5-[9-(Furan-2-carbonyl)-6,7,8,9-tetrahydro-5-oxa-9-aza-benzocyclohepten-2-ylmethylene]-2-thioxo-thiazolidin-4-one], the IC50 stood at 3900 nM.

As for “5-[4-(Furan-2-carbonyl)-3,4-dihydro-2H-1,4-benzoxazin-6-ylmethylene]-2-thioxo-thiazolidin-4-one [Example 41]”, the IC50 came to 65 nM. Consider `COC(=O)CCCCCCC(=O)N1CCOc2ccc(C=C3SC(=S)NC3=O)cc21` [Example 44, 8-Oxo-8-[6-(4-oxo-2-thioxo-thiazolidin-5-ylidenemethyl)-2,3-dihydro-1,4-benzoxazin-4-yl]-octanoic acid methyl ester], for which the IC50 was 18 nM. `O=C1NC(=S)SC1=Cc1ccc2c(c1)N(C(=O)NCCc1ccccc1)CCO2` [Example 65, 6-(4-Oxo-2-thioxo-thiazolidin-5-ylidenemethyl)-2,3-dihydro-1,4-benzoxazine-4-carboxylic acid phenethyl-amide]: the IC50 stood at 17 nM. On to `O=C1NC(=S)SC1=Cc1ccc2c(c1)N(C(=O)Cc1cccs1)CCO2` [Example 35, 5-[4-(2-Thiophen-2-yl-acetyl)-3,4-dihydro-2H-1,4-benzoxazin-6-ylmethylene]-2-thioxo-thiazolidin-4-one], for which the 50% inhibitory concentration (IC50) amounted to 36 nM.

For `O=C1NC(=S)SC1=Cc1ccc2c(c1)N(C(=O)COc1ccccc1)CCO2` [Example 38, 5-[4-(2-Phenoxy-acetyl)-3,4-dihydro-2H-1,4-benzoxazin-6-ylmethylene]-2-thioxo-thiazolidin-4-one], the half-inhibitory concentration (IC50) amounted to 25 nM. Consider `O=C1NC(=S)SC1=Cc1ccc2c(c1)N(C(=O)c1cccnc1)CCCO2` [Example 117, 5-[9-(Pyridine-3-carbonyl)-6,7,8,9-tetrahydro-5-oxa-9-aza-benzocyclohepten-2-ylmethylene]-2-thioxo-thiazolidin-4-one], for which the IC50 was 1910 nM.

Turning to “5-[9-(2-Thiophen-2-yl-acetyl)-6,7,8,9-tetrahydro-5-oxa-9-aza-benzocyclohepten-2-ylmethylene]-2-thioxo-thiazolidin-4-one [Example 112]”, the 50% inhibitory concentration (IC50) is 1140 nM.

Take `Cc1cc(C(=O)N2CCOc3ccc(C=C4SC(=S)NC4=O)cc32)no1` [Example 52, 5-[4-(5-Methyl-isoxazole-3-carbonyl)-3,4-dihydro-2H-1,4-benzoxazin-6-ylmethylene]-2-thioxo-thiazolidin-4-one]: the half-maximal inhibitory concentration (IC50) was determined as 115 nM. As for `O=C1NC(=S)SC1=Cc1ccc2c(c1)N(S(=O)(=O)c1ccccc1)CCO2` [Example 3, 5-[(4-benzenesulfonyl)-3,4-dihydro-2H-benzo[1,4]oxazine-6-ylmethylene)-2-thioxo-thiazolidin-4-one], the figure is 1130 nM.
